Consider 24 compounds from patent US9815796B2 (Merck Sharp & Dohme Corp., priority 2013, dated 2017).

Read-outs that look alike come from different tables or passages of the source. Some results are limits rather than exact numbers.

This assay concerns the target Rhesus PDE2A3 (Macaca mulatta, UniProt B3VTJ2). The assay is described as follows: PDE2 fluorescence polarization (IMAP FP) inhibition assay, rhesus enzyme. The class given is biochemical, rhesus macaque. The method, then:
The activity of the compounds in accordance with the present invention as PDE2 inhibitors may be readily determined using a fluorescence polarization (FP) methodology (Huang, W., et al., J. Biomol Screen, 2002, 7: 215).
In a typical experiment the PDE2 inhibitory activity of the compounds of the present invention was determined in accordance with the following experimental method. Rhesus PDE2A3 was amplified from rhesus macaque brain cDNA (Biochain Institute, Hayward, Calif.) using primers based on human PDE2A sequence (accession NM_002599.3) where the forward primer containing a Kozak consensus was 5′-[…]-3′ and the reverse primer was 5′-[…]-3′. Amplification with Easy-A High-Fidelity PCR cloning enzyme (Stratagene, La Jolla, Calif.) was 95° C. for 2 minutes followed by thirty three cycles of 95° C. for 40 seconds, 52° C. for 30 seconds, and 72° C. for 2 minutes 48 seconds. Final extension was 72° C. for 7 minutes. The PCR product was TA cloned into pcDNA3.3-TOPO (Invitrogen, Carlsbad, Calif.) according to standard protocol. A consensus sequence was developed from multiple clones and then deposited into GenBank (EU812167). AD293 cells (Stratagene, La Jolla, Calif.) with 70-80% confluency were transiently transfected with rhesus PDE2A3/pcDNA3.3-TOPO using Lipofectamine 2000 according to manufacturer specifications (Invitrogen, Carlsbad, Calif.). Cells were harvested 48 hours post-transfection and lysed by sonication (setting 3, 10×5 sec pulses) in a buffer containing 20 mM HEPES pH 7.4, 1 mM EDTA and Complete Protease Inhibitor Cocktail Tablets (Roche, Indianapolis, Ind.). Lysate was collected by centrifugation at 75,000×g for 20 minutes at 4° C. and supernatant utilized for evaluation of PDE2 activity. The fluorescence polarization assay for cyclic nucleotide phosphodiesterases was performed using an IMAP® FP kit supplied by Molecular Devices, Sunnyvale, Calif. (product # R8139). […] Assays were performed at room temperature in 384-well microtiter plates with an incubation volume of 20.2 μL. Solutions of test compounds were prepared in DMSO and serially diluted with DMSO to yield 8 μL of each of 10 solutions differing by 3-fold in concentration, at 32 serial dilutions per plate. […] 0% of inhibition is determined by using DMSO (1% final concentrations).
A Labcyte Echo 555 (Labcyte, Sunnyvale, Calif.) is used to dispense 200 nL from each well of the titration plate to the 384 well assay plate. Ten microliters of a solution of enzyme (1/2000 final dilution from aliquots; sufficient to produce 20% substrate conversion) was added to the assay plate. Next 10 uL of a separate solution of the substrate FAM-labeled cAMP (50 nM final concentration product # R7506 from Molecular Devices) and the activator cGMP (1 uM final concentration), prepared in the assay buffer (10 mM Tris HCl, pH 7.2, 10 mM MgCl2, 0.05% NaN3 0.01% Tween-20, and 1 mM DTT) was added to the assay plate and shaken to mix. The reaction is allowed to proceed at room temperature for 60 minutes. A binding solution is then made from the kit components, comprised of 80% Solution A, 20% Solution B and binding reagent at a volume of 1/600 the total binding solution. The enzymatic reaction is stopped by addition of 60 μL of the binding solution to each well of the assay plates and the plates are sealed and shaken for 30 seconds. The plate was incubated at room temperature for at least one hour prior to determining the fluorescence polarization (FP). The parallel and perpendicular fluorescence of each well of the plate was measured using a Tecan Genios Pro plate reader (Tecan, Switzerland) or Perkin Elmer EnVision™ plate reader (Waltham, Mass.). Fluorescence polarization (mP) was calculated from the parallel (S) and perpendicular (P) fluorescence of each sample well and the analogous values for the median control well, containing only substrate (So and Po), using the following equation: Polarization (mP)=1000*(S/So−P/Po)/(S/So+P/Po).
A general note: In fluorescence polarisation assays a small probe gives low polarisation when free and higher when bound to something large.

The mark [1] stands for this setting: Rhesus PDE2, Lab A, read-out: Rhesus PDE2 Ki (nM) - Lab A.
[2] abbreviates: Rhesus PDE2, Lab B, read-out: Rhesus PDE2 Ki (nM) - Lab B.

Sequence of Rhesus PDE2A3 (B3VTJ2 1-941): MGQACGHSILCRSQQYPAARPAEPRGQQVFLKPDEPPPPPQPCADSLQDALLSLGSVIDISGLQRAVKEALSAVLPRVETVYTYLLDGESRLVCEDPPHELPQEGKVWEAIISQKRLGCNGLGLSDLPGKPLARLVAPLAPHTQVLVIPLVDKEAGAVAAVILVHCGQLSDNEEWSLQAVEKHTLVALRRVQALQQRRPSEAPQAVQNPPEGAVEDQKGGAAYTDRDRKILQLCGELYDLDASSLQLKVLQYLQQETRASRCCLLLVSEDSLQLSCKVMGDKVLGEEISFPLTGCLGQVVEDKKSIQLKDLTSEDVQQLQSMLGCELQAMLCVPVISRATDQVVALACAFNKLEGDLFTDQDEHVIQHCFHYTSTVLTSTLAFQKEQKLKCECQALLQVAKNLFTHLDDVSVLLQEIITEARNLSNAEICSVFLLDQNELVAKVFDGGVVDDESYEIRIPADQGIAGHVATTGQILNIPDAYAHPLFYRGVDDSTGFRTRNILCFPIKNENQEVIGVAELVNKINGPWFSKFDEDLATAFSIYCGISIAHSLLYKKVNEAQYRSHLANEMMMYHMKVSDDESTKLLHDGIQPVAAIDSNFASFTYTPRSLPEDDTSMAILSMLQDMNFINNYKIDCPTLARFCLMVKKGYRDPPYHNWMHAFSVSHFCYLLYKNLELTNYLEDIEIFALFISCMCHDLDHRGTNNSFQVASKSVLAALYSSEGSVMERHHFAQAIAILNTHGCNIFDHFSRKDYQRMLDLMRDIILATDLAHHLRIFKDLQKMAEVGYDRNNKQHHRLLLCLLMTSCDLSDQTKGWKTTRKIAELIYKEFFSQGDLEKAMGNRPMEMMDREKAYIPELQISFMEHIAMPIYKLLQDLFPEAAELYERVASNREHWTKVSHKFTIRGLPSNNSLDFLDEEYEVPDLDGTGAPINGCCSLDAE

As for `CN(Cc1cc(F)c(F)c(F)c1)C(=O)c1cc(=O)[nH]c(C2CC2)n1` [Example 206, 2-cyclopropyl-N-methyl-6-oxo-N-(3,4,5-trifluoromethyl)-1,6-dihydropyrimidine-4-carboxamide], the Ki under setting [1] was determined as 24300 nM.
With `Cc1nc(C(=O)NC(C)c2ccc(-c3ccccc3)cc2)cc(=O)[nH]1` (single isomer, unassigned) [Example 308, (S)- or (R)-N-(1-biphenyl-4-ylethyl)-2-methyl-6-oxo-1,6-dihydropyrimidine-4-carboxamide], under setting [1], the Ki was determined as 2500 nM.
`COc1ccc(C(C)(C)c2nc(C(=O)N[C@@H](c3ccc(SC(F)(F)F)cc3)C(C)(C)C)cc(=O)[nH]2)cc1` [Example 488, N-[(1R)-2,2-dimethyl-1-{4-[(trifluoromethyl)sulfanyl]phenyl}propyl]-2-[1-(4-methoxyphenyl)-1-methylethyl]-6-oxo-1,6-dihydropyrimidine-4-carboxamide]: the Ki under setting [2] was 116 nM.
In the case of `O=C(NC1(c2ccccc2OC(F)(F)F)CCC1)c1cc(=O)[nH]c(-c2ccccc2)n1` [Example 411, 6-oxo-2-phenyl-N-{1-[2-(trifluoromethoxy)phenyl]cyclobutyl}-1,6-dihydropyrimidine-4-carboxamide], the inhibition constant Ki under setting [2] is 1460 nM.
For `Cc1cc(C(F)(F)F)ccc1CNC(=O)c1cc(=O)[nH]c(-c2ccccc2)n1` [Example 180, N-[2-methyl-4-(trifluoromethyl)benzyl]-6-oxo-2-phenyl-1,6-dihydropyrimidine-4-carboxamide], the Ki under setting [1] was 2050 nM.
The same measure, in the same setting: for `Cc1nc(C(=O)NC(C)c2ccc(C(C)(C)C)cc2)cc(=O)[nH]1` (single isomer, unassigned) [Example 310, (S)- or (R)-N-[1-(4-tert-butylphenyl)ethyl]-2-methyl-6-oxo-1,6-dihydropyrimidine-4-carboxamide] the value was 5650 nM.
On to `O=C(NCc1c(Cl)cc(C(F)(F)F)cc1Cl)c1cc(=O)[nH]c(-c2ccccc2)n1` [Example 156], for which the “Rhesus PDE2 % inh. at 1 uM - Lab A” value (Rhesus PDE2, Lab A) was 9 % inh. For the same compound, the Ki under setting [1] is more than 1000 nM.
Regarding `CCC(NC(=O)c1cc(=O)[nH]c(C)n1)c1ccc(C(C)(C)C)cc1` (centres unmarked) [Example 12, N-[1-(4-tert-butylphenyl)propyl]-2-methyl-6-oxo-1,6-dihydropyrimidine-4-carboxamide], the Ki under setting [1] is 102 nM.
On the same count and under the same terms, with `COc1ccc(C(NC(=O)c2cc(=O)[nH]c(-c3ncccn3)n2)c2ccc(C(F)(F)F)cc2)cc1` (centres unmarked) [Example 87, N-{(4-methoxyphenyl)[4-(trifluoromethyl)phenyl]methyl}-6-oxo-1,6-dihydro-2,2′-bipyrimidine-4-carboxamide] the figure was 1920 nM.
For the compound `O=C(NC(c1ccccc1)c1ccc(C(F)(F)F)cc1)c1cc(=O)[nH]c(-c2ncccn2)n1` (centres unmarked) [Example 78, 6-oxo-N-{phenyl[4-(trifluoromethyl)phenyl]methyl}-1,6-dihydro-2,2′-bipyrimidine-4-carboxamide], under setting [1], the Ki turned out to be 1080 nM.
`CC(NC(=O)c1cc(=O)[nH]c(-c2ccccc2)n1)c1ccccc1C(F)(F)F` (centres unmarked) [Example 169, 6-oxo-2-phenyl-N-{1-[2-(trifluoromethyl)phenyl]ethyl}-1,6-dihydropyrimidine-4-carboxamide]: under setting [1], the Ki was 3420 nM.
Regarding `CC(C)(NC(=O)c1cc(=O)[nH]c(-c2ncccn2)n1)c1ccc(SC(F)(F)F)c(F)c1` [Example 241, N-(1-{3-fluoro-4-[(trifluoromethyl)sulfanyl]phenyl}-1-methylethyl)-6-oxo-1,6-dihydro-2,2′-bipyrimidine-4-carboxamide], the inhibitory constant (Ki) under setting [1] amounted to 557 nM.
With `O=C(NC(c1ccccc1)c1ccc(C(F)(F)F)cc1)c1cc(=O)[nH]c(-c2ccccc2)n1` (centres unmarked) [Example 162, 6-oxo-2-phenyl-N-{phenyl[4-(trifluoromethyl)phenyl]methyl}-1,6-dihydropyrimidine-4-carboxamide], under “Rhesus PDE2, Lab A”, the “Rhesus PDE2 % inh. at 1 uM - Lab A” value came to 45 % inh. For the same compound, the Ki is, setting by setting: under setting [1], more than 1000 nM; under setting [2], 1000 nM.
Take `Cc1nc(C(=O)N[C@H](C)c2ccc(-c3ccc(C(F)(F)F)cc3)cc2)cc(=O)[nH]1` [Example 318, 2-methyl-6-oxo-N-{(1R)-1-[4′-(trifluoromethyl)biphenyl-4-yl]ethyl}-1,6-dihydropyrimidine-4-carboxamide]: the Ki stood at 73 nM under setting [1] and 189 nM under setting [2].
As for `CC(C)(NC(=O)c1cc(=O)[nH]c(-c2ncccn2)n1)c1ccc(S(F)(F)(F)(F)F)cc1` [Example 678, N-{1-methyl-1-[4-(pentafluoro-λ^6-sulfanyl)phenyl]ethyl}-6-oxo-1,6-dihydro-2,2′-bipyrimidine-4-carboxamide], the inhibition constant (Ki) under setting [2] is 501 nM.
Consider `Cc1nc(C(=O)N[C@H](C)c2ccc(S(=O)(=O)C(F)(F)F)cc2)cc(=O)[nH]1` [Example 331, 2-Methyl-6-oxo-N-[(1R)-1-{4-[(trifluoromethyl)sulfonyl]phenyl}ethyl]-1,6-dihydropyrimidine-4-carboxamide], for which, under setting [1], the Ki was found to be 304 nM.
On to `C[C@@H](NC(=O)c1cc(=O)[nH]c(-c2ncccn2)n1)c1cc(F)c(C(F)(F)F)cc1F` [Example 429, N-{(1R)-1-[2,5-difluoro-4-(trifluoromethyl)phenyl]ethyl}-6-oxo-1,6-dihydro-2,2′-bipyrimidine-4-carboxamide], for which the inhibition constant (Ki) under setting [2] was 42 nM.
`O=C(c1cc(=O)[nH]c(-c2ccccc2)n1)N1Cc2cnc(-c3ccccc3)nc2C1` [Example 409, 2-phenyl-6-[(2-phenyl-5,7-dihydro-6H-pyrrolo[3,4-d]pyrimidin-6-yl)carbonyl]pyrimidin-4(3H)-one]: the Ki under setting [2] was 3930 nM.
Consider `CC(NC(=O)c1cc(=O)[nH]c(C2CC2)n1)c1ccc(C(F)(F)F)cn1` (centres unmarked) [Example 238, 2-cyclopropyl-6-oxo-N-{1-[5-(trifluoromethyl)pyridin-2-yl]ethyl}-1,6-dihydropyrimidine-4-carboxamide], for which the Ki under setting [1] was 683 nM.
Regarding `Cc1nc(C(=O)NC(C)c2ccc(C(C)(C)C(F)(F)F)cc2)cc(=O)[nH]1` (single isomer, unassigned) [Example 695, (R)- or (S)-2-methyl-6-oxo-N-(1-(4-(1,1,1-trifluoro-2-methylpropan-2-yl)phenyl)ethyl)-1,6-dihydropyrimidine-4-carboxamide], the Ki under setting [2] was determined as 473 nM.
Take `CC(C)(NC(=O)c1cc(=O)[nH]c(-c2ccccc2)n1)c1ccc(F)cc1` [Example 349, N-[1-(4-fluorophenyl)-1-methylethyl]-6-oxo-2-phenyl-1,6-dihydropyrimidine-4-carboxamide]: the Ki reads like this: under setting [1], approximately 525 nM; under setting [2], 713 nM.
Take `C[C@@H](NC(=O)c1cc(=O)[nH]c(-c2ncccn2)n1)c1cccc(C(F)(F)F)c1` [Example 80, 6-oxo-N-{(1R)-1-[3-(trifluoromethyl)phenyl]ethyl}-1,6-dihydro-2,2′-bipyrimidine-4-carboxamide]: the Ki under setting [1] was 845 nM.
`Cc1nc(C(=O)NC(C)c2ccc(C(C)C)cc2)cc(=O)[nH]1` (single isomer, unassigned) [Example 306, (S)- or (R)-2-methyl-N-{1-[4-(1-methylethyl)phenyl]ethyl}-6-oxo-1,6-dihydropyrimidine-4-carboxamide]: under setting [1], the Ki was 2380 nM.
For the compound `CC1(C(NC(=O)c2cc(=O)[nH]c(-c3ncccn3)n2)c2ccc(SC(F)(F)F)c(F)c2)CC1` (single isomer, unassigned) [Example 708, (S)- or (R)-N-((3-fluoro-4-((trifluoromethyl)thio)phenyl)(1-methylcyclopropyl)methyl)-6-oxo-1,6-dihydro-[2,2′-bipyrimidine-4-carboxamide], under setting [2], the Ki is approximately 2120 nM.

For orientation: Ki means the dissociation constant of the complex between target and ligand, obtained from inhibition or displacement.
